Test: recombinant UMI read abundance after kanamycin selection (control-corrected) (log10(CPM+1)); higher = more efficient recombination; extreme values may be limits of the assay; sequences stand for … in AGTGCAGAGAAAATCGGCCAGTTTTCTCTGCCTGCAGTCCGCATGCCGTGGGACCCCTTGGGTTCTAACCTGTTGCCTAGATTTATGCAGCGGACTGCCTTTCTCCCAAAGTGATAAACCGG…AGGTTGGTTTCACT; site = the 11-nt donor
In short: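 For the IS621 bridge recombinase, a pooled Escherichia coli screen tested donor and donor-binding-loop pairs. Cells received the pair library together with a target plasmid encoding a fixed target and T7-inducible recombinase, then went onto IPTG (0.07 mM) plus kanamycin or unselected plates in duplicate. After PCR across the donor–target junction and sequencing, recombinant UMI counts were normalized to CPM, averaged, and scaled by control-derived factors. Each value is given as log10(CPM+1).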
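Also: IS621 bridge recombinase in Escherichia coli cells against a fixed T5 target plasmid.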

## CCTAATACATGGACCGGTTTTCCCGGTAATCCGTATTTGAC (site CCTAATACTGG)
  recombinant UMI read abundance (log10): 0

## CCTAATACATGGACCGGTTTTCCCGGTAATCCGTATTTGAC (site CCTAATACTGT)
  recombinant UMI read abundance (log10): 0

## CCTAATTCATGGACCGGTTTTCCCGGTAATCCGTATTTGGC (site CCTAATACTGC)
  recombinant UMI read abundance (log10): 0

## CCTAATTCATGGACCGGTTTTCCCGGTAATCCGTATTTGGC (site CCTAATCCTGC)
  recombinant UMI read abundance (log10): 0

## CCTAATTCATGGACCGGTTTTCCCGGTAATCCGTATTTGGC (site CCTAATGCTGC)
  recombinant UMI read abundance (log10): 0

## CCTAATTCATGGACCGGTTTTCCCGGTAATCCGTATTTGGC (site CCTAATTCTGC)
  recombinant UMI read abundance (log10): 0

## CCTAGAACATGGACCGGTTTTCCCGGTAATCCGTATTTGAG (site ACTAGAACTCT)
  recombinant UMI read abundance (log10): 0.00253

## CCTAGAACATGGACCGGTTTTCCCGGTAATCCGTATTTGAG (site CCTAGAACTCT)
  recombinant UMI read abundance (log10): 0.00591

## CCTAGAACATGGACCGGTTTTCCCGGTAATCCGTATTTGAG (site GCTAGAACTCT)
  recombinant UMI read abundance (log10): 0.0133

## CCTAGAACATGGACCGGTTTTCCCGGTAATCCGTATTTGAG (site TCTAGAACTCT)
  recombinant UMI read abundance (log10): 0.00636

## CCTAGAGCATGGACCGGTTTTCCCGGTAATCCGTATTTGTT (site CCTAGAGCTAA)
  recombinant UMI read abundance (log10): 0.633

## CCTAGGTCATGGACCGGTTTTCCCGGTAATCCGTATTTGCC (site CCTAGGTCTGG)
  recombinant UMI read abundance (log10): 0

## CCTAGTGCATGGACCGGTTTTCCCGGTAATCCGTATTTGGT (site ACTAGTGCTAC)
  recombinant UMI read abundance (log10): 0.00584

## CCTAGTGCATGGACCGGTTTTCCCGGTAATCCGTATTTGGT (site CCTAGTGCTAC)
  recombinant UMI read abundance (log10): 0.533

## CCTAGTGCATGGACCGGTTTTCCCGGTAATCCGTATTTGGT (site GCTAGTGCTAC)
  recombinant UMI read abundance (log10): 0.0365

## CCTAGTGCATGGACCGGTTTTCCCGGTAATCCGTATTTGGT (site TCTAGTGCTAC)
  recombinant UMI read abundance (log10): 0.0125

## CCTATATCATGGACCGGTTTTCCCGGTAATCCGTATTTGTC (site CCAATATCTGA)
  recombinant UMI read abundance (log10): 0

## CCTATATCATGGACCGGTTTTCCCGGTAATCCGTATTTGTC (site CCCATATCTGA)
  recombinant UMI read abundance (log10): 0.00678

## CCTATATCATGGACCGGTTTTCCCGGTAATCCGTATTTGTC (site CCGATATCTGA)
  recombinant UMI read abundance (log10): 0

## CCTATATCATGGACCGGTTTTCCCGGTAATCCGTATTTGTC (site CCTATATCTGA)
  recombinant UMI read abundance (log10): 0

## CCTCACACATGGACCGGTTTTCCCGGTAATCCGTATTTGTA (site CCACACACTTA)
  recombinant UMI read abundance (log10): 0

## CCTCACACATGGACCGGTTTTCCCGGTAATCCGTATTTGTA (site CCCCACACTTA)
  recombinant UMI read abundance (log10): 0.0116

## CCTCACACATGGACCGGTTTTCCCGGTAATCCGTATTTGTA (site CCGCACACTTA)
  recombinant UMI read abundance (log10): 0.0283

## CCTCACACATGGACCGGTTTTCCCGGTAATCCGTATTTGTA (site CCTCACACTTA)
  recombinant UMI read abundance (log10): 0.166

## CCTCGAGCATGGACCGGTTTTCCCGGTAATCCGTATTTGTG (site CCTCGAGCTCA)
  recombinant UMI read abundance (log10): 0.234

## CCTCTTGCATGGACCGGTTTTCCCGGTAATCCGTATTTGAG (site CCTCTTGCTCT)
  recombinant UMI read abundance (log10): 0.0146

## CCTCTTTCATGGACCGGTTTTCCCGGTAATCCGTATTTGAG (site CCTCTTTCTCT)
  recombinant UMI read abundance (log10): 0.00323

## CCTGAAGCATGGACCGGTTTTCCCGGTAATCCGTATTTGAT (site CCTAAAGCTAT)
  recombinant UMI read abundance (log10): 0.231

## CCTGAAGCATGGACCGGTTTTCCCGGTAATCCGTATTTGAT (site CCTCAAGCTAT)
  recombinant UMI read abundance (log10): 0

## CCTGAAGCATGGACCGGTTTTCCCGGTAATCCGTATTTGAT (site CCTGAAGCTAT)
  recombinant UMI read abundance (log10): 0.209

## CCTGAAGCATGGACCGGTTTTCCCGGTAATCCGTATTTGAT (site CCTTAAGCTAT)
  recombinant UMI read abundance (log10): 0

## CCTGATACATGGACCGGTTTTCCCGGTAATCCGTATTTGGC (site CCTAATACTGC)
  recombinant UMI read abundance (log10): 0

## CCTGATACATGGACCGGTTTTCCCGGTAATCCGTATTTGGC (site CCTCATACTGC)
  recombinant UMI read abundance (log10): 0

## CCTGATACATGGACCGGTTTTCCCGGTAATCCGTATTTGGC (site CCTGATACTGC)
  recombinant UMI read abundance (log10): 0

## CCTGATACATGGACCGGTTTTCCCGGTAATCCGTATTTGGC (site CCTTATACTGC)
  recombinant UMI read abundance (log10): 0

## CCTGCACCATGGACCGGTTTTCCCGGTAATCCGTATTTGGA (site CCTGCACCTTC)
  recombinant UMI read abundance (log10): 0.00678

## CCTGCTACATGGACCGGTTTTCCCGGTAATCCGTATTTGCG (site CCTGCTACTCG)
  recombinant UMI read abundance (log10): 0.0136

## CCTGGCACATGGACCGGTTTTCCCGGTAATCCGTATTTGAA (site CCTGGCACTTT)
  recombinant UMI read abundance (log10): 0.0111

## CCTGGTGCATGGACCGGTTTTCCCGGTAATCCGTATTTGTA (site CCTGGTGCTTA)
  recombinant UMI read abundance (log10): 0.698

## CCTGTAGCATGGACCGGTTTTCCCGGTAATCCGTATTTGAG (site CCTGTAGCTCT)
  recombinant UMI read abundance (log10): 0.443

## CCTGTATCATGGACCGGTTTTCCCGGTAATCCGTATTTGCA (site ACAGTATCTTG)
  recombinant UMI read abundance (log10): 0

## CCTGTATCATGGACCGGTTTTCCCGGTAATCCGTATTTGCA (site CCTGTATCTTG)
  recombinant UMI read abundance (log10): 0

## CCTGTCGCATGGACCGGTTTTCCCGGTAATCCGTATTTGAG (site CCTGTCGCTCT)
  recombinant UMI read abundance (log10): 0.909

## CCTGTGGCATGGACCGGTTTTCCCGGTAATCCGTATTTGTA (site CCTGTGGCTTA)
  recombinant UMI read abundance (log10): 0.327

## CCTTAAGCATGGACCGGTTTTCCCGGTAATCCGTATTTGAT (site CCTAAAGCTAT)
  recombinant UMI read abundance (log10): 0

## CCTTAAGCATGGACCGGTTTTCCCGGTAATCCGTATTTGAT (site CCTCAAGCTAT)
  recombinant UMI read abundance (log10): 0.0107

## CCTTAAGCATGGACCGGTTTTCCCGGTAATCCGTATTTGAT (site CCTGAAGCTAT)
  recombinant UMI read abundance (log10): 0

## CCTTAAGCATGGACCGGTTTTCCCGGTAATCCGTATTTGAT (site CCTTAAGCTAT)
  recombinant UMI read abundance (log10): 0.00726

## CCTTAGACATGGACCGGTTTTCCCGGTAATCCGTATTTGAG (site CATTAGACTCT)
  recombinant UMI read abundance (log10): 0.0191

## CCTTAGACATGGACCGGTTTTCCCGGTAATCCGTATTTGAG (site CCTTAGACTCT)
  recombinant UMI read abundance (log10): 0.0167

## CCTTAGACATGGACCGGTTTTCCCGGTAATCCGTATTTGAG (site CGTTAGACTCT)
  recombinant UMI read abundance (log10): 0.0159

## CCTTAGACATGGACCGGTTTTCCCGGTAATCCGTATTTGAG (site CTTTAGACTCT)
  recombinant UMI read abundance (log10): 0.0107

## CCTTGTCCATGGACCGGTTTTCCCGGTAATCCGTATTTGCG (site CCTTGTCCTCG)
  recombinant UMI read abundance (log10): 0.00291

## CCTTTACCATGGACCGGTTTTCCCGGTAATCCGTATTTGAA (site CCTTTACCTTT)
  recombinant UMI read abundance (log10): 0.019

## CCTTTCTCATGGACCGGTTTTCCCGGTAATCCGTATTTGCG (site CCTTTCTCTCG)
  recombinant UMI read abundance (log10): 0

## CCTTTGCCATGGACCGGTTTTCCCGGTAATCCGTATTTGTG (site CCTTTGCCTCA)
  recombinant UMI read abundance (log10): 0.00549

## CGAACATCATGGACCGGTTTTCCCGGTAATCCGTATTTGCC (site CGAACATCTGG)
  recombinant UMI read abundance (log10): 0.671

## CGAACATCATGGACCGGTTTTCCCGGTAATCCGTATTTGCC (site CGATCATCTAG)
  recombinant UMI read abundance (log10): 0

## CGAACATCATGGACCGGTTTTCCCGGTAATCCGTATTTGCT (site CGAACATCTAG)
  recombinant UMI read abundance (log10): 2.13

## CGAACATCATGGACCGGTTTTCCCGGTAATCCGTATTTGCT (site CGACCATCTAG)
  recombinant UMI read abundance (log10): 0.469

## CGAACATCATGGACCGGTTTTCCCGGTAATCCGTATTTGCT (site CGAGCATCTAG)
  recombinant UMI read abundance (log10): 1.39

## CGAACATCATGGACCGGTTTTCCCGGTAATCCGTATTTGCT (site CGATCATCTAG)
  recombinant UMI read abundance (log10): 0

## CGAACATCATGGACCGGTTTTCCCGGTAATCCGTATTTGCT (site CGCACATCTAG)
  recombinant UMI read abundance (log10): 0

## CGAACATCATGGACCGGTTTTCCCGGTAATCCGTATTTGCT (site CGGACATCTAG)
  recombinant UMI read abundance (log10): 0.583

## CGAACATCATGGACCGGTTTTCCCGGTAATCCGTATTTGCT (site CGTACATCTAG)
  recombinant UMI read abundance (log10): 0

## CGAACTACATGGACCGGTTTTCCCGGTAATCCGTATTTGAG (site CGAACTACTCT)
  recombinant UMI read abundance (log10): 1.95

## CGAAGCCCATGGACCGGTTTTCCCGGTAATCCGTATTTGAT (site CGAAGCCCTAT)
  recombinant UMI read abundance (log10): 1.22

## CGACAATCATGGACCGGTTTTCCCGGTAATCCGTATTTGCT (site CGACAATCTAG)
  recombinant UMI read abundance (log10): 2.77

## CGACAATCATGGACCGGTTTTCCCGGTAATCCGTATTTGCT (site CGATCATCTAG)
  recombinant UMI read abundance (log10): 0

## CGACATACATGGACCGGTTTTCCCGGTAATCCGTATTTGCG (site CGACATACTCG)
  recombinant UMI read abundance (log10): 2.76

## CGACCATCATGGACCGGTTTTCCCGGTAATCCGTATTTGCG (site CGACCATCTCG)
  recombinant UMI read abundance (log10): 2.23

## CGACCATCATGGACCGGTTTTCCCGGTAATCCGTATTTGCG (site CGATCATCTAG)
  recombinant UMI read abundance (log10): 0

## CGACCCACATGGACCGGTTTTCCCGGTAATCCGTATTTGGT (site CGACCCACTAC)
  recombinant UMI read abundance (log10): 1.23

## CGACCGACATGGACCGGTTTTCCCGGTAATCCGTATTTGTT (site CGAACGACTAA)
  recombinant UMI read abundance (log10): 0.0187

## CGACCGACATGGACCGGTTTTCCCGGTAATCCGTATTTGTT (site CGACCGACTAA)
  recombinant UMI read abundance (log10): 0.195

Reference: the supplement of paper PMC11208160
